Measured values from article PMC2680423 (Cell calcium, 2009).
Read-outs that look alike come from different tables or passages of the source.

Legend:
Drosophila TRPL channel [1] = target: T1, Drosophila TRPL channel (Drosophila melanogaster, UniProt P48994); test: Whole cell patch clamp of TRPL channels expressed in S2 cells; assay type: cell-based; details: for TRPL Activation/Inhibition: Table 1, TRPL expressed in S2 cells; for Reversibility of effect on TRPL channel: washout, S2 cells
T1 sequence (P48994 1-1124): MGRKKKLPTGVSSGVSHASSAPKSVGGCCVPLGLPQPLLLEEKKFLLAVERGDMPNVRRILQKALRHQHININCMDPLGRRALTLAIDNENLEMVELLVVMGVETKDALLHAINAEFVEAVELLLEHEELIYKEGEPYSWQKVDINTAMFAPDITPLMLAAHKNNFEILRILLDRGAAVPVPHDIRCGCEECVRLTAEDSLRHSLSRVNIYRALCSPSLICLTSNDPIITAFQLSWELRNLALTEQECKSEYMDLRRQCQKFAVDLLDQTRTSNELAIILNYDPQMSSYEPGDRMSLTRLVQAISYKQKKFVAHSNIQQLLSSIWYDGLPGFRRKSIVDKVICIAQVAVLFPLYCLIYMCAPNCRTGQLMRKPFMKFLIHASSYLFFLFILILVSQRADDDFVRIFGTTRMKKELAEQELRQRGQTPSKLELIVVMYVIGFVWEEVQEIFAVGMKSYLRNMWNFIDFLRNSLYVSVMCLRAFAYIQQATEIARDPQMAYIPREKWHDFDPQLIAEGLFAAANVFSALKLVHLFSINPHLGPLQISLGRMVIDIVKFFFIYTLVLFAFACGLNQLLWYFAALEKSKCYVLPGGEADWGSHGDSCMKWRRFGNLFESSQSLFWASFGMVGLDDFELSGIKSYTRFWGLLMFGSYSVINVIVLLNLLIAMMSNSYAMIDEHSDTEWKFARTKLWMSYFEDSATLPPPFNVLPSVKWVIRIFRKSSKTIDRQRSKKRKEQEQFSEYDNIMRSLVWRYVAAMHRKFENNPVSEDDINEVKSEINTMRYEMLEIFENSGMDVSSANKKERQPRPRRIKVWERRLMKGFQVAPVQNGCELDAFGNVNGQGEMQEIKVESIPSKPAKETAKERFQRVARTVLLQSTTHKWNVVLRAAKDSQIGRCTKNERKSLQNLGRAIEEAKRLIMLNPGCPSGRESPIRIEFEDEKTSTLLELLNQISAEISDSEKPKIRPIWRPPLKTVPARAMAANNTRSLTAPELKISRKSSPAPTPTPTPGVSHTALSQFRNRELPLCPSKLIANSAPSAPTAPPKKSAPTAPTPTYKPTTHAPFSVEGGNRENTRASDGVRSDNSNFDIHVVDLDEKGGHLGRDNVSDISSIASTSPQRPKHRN

mammalian TRPM7 = mammalian TRPM7 (Mus musculus, UniProt Q923J1); test: Whole cell patch clamp of TRPM7 expressed in HEK293 cells; assay type: cell-based
Chain of mammalian TRPM7 (Q923J1 whole entry): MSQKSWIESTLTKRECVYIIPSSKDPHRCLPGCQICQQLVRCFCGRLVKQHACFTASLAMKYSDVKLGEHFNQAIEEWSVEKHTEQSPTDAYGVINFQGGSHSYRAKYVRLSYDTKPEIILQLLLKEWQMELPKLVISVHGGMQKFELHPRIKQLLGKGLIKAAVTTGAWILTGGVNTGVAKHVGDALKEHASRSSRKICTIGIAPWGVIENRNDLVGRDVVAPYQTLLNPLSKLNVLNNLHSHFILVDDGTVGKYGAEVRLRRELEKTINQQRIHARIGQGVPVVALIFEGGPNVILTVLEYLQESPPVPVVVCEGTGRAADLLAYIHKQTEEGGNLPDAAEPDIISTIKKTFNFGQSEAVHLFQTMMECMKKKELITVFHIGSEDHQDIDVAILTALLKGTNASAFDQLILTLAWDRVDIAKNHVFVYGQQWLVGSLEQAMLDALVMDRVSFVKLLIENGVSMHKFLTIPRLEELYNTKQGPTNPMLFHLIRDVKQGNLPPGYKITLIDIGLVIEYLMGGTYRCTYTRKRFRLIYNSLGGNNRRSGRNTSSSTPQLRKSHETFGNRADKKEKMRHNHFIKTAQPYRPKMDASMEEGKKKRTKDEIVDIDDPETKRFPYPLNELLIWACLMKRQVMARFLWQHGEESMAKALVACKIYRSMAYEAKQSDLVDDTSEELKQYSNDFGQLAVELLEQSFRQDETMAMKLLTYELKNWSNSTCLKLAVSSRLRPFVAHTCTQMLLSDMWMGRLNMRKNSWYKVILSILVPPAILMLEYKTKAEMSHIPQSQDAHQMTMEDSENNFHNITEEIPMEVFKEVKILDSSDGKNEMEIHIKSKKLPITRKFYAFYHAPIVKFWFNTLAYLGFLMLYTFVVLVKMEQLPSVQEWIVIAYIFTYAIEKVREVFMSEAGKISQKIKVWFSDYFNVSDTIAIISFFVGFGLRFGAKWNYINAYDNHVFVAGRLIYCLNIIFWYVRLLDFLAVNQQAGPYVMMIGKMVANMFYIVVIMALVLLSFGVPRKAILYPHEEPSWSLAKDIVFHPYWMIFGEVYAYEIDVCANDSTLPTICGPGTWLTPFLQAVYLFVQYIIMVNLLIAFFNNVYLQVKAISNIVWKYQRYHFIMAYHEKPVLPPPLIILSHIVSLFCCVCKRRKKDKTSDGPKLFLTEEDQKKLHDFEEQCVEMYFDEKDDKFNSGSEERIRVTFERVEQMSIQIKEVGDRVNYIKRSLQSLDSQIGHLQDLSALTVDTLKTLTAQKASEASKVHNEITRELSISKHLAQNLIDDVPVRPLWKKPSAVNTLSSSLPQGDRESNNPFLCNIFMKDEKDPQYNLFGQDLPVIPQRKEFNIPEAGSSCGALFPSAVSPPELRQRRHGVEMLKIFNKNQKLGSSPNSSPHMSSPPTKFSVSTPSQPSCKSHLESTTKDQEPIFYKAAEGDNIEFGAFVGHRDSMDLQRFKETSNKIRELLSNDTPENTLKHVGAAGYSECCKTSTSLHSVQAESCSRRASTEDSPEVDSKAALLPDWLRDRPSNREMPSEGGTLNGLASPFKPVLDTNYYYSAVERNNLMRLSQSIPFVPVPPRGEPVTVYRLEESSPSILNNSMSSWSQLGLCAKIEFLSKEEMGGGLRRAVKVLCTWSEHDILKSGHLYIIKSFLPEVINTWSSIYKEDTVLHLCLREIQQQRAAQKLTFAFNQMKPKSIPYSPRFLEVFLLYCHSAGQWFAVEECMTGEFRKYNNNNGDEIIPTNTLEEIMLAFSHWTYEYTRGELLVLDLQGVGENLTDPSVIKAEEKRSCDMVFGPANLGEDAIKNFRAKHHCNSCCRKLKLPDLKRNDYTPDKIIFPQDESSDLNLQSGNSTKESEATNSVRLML

native TRP channel = target: T2, native TRP channel (Drosophila melanogaster, UniProt P19334); test: Light induced current; details: WT photoreceptors, 6 min in the dark after application
T2 sequence (P19334 1-1275): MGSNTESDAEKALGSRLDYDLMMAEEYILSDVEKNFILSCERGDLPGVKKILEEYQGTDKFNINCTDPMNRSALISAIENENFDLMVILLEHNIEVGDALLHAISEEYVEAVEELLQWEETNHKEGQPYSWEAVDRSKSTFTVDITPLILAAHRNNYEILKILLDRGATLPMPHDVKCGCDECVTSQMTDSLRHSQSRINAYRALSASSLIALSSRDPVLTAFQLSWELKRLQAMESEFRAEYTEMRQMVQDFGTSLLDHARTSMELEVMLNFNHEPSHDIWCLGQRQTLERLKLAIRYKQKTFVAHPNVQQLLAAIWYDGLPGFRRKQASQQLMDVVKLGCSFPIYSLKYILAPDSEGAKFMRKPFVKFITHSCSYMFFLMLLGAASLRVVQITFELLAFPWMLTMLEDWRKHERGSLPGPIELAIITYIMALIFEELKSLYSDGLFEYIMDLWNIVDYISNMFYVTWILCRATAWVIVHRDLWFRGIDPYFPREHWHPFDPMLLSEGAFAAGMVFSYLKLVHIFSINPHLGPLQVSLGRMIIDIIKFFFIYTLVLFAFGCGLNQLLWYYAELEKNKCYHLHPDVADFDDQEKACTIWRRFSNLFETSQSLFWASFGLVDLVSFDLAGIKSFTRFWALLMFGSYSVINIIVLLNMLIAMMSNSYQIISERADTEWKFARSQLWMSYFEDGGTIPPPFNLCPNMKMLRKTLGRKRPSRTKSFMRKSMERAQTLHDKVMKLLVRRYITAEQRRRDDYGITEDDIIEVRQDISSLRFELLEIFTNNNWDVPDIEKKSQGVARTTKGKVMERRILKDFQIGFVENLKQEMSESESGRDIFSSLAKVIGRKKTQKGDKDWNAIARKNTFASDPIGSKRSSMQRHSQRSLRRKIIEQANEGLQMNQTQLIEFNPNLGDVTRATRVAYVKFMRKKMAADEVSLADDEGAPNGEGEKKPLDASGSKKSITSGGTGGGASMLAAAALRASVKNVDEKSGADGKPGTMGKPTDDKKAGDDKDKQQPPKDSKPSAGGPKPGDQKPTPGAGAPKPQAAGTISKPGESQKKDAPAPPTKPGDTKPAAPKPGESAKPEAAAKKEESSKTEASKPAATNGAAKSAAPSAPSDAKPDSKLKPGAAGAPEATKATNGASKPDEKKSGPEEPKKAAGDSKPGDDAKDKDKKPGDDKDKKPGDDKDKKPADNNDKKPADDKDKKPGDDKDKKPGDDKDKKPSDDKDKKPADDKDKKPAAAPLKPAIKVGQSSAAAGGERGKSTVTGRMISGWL

[2] = target: TRPM7-GFP expressed in hippocampal neurons (Mus musculus, UniProt Q923J1); test: Synaptic vesicle release; assay type: cell-based; details: 500μM
Chain of TRPM7-GFP expressed in hippocampal neurons (Q923J1 whole entry): as the sequence (Q923J1 whole entry) above

[3] = test system: control hippocampal neurons; test: Synaptic vesicle release; assay type: cell-based; details: 500μM
[4] = test system: mock transfected HEK293 cells; test: Control: mock transfected HEK293 cells, whole cell patch clamp; assay type: cell-based, Human; details: TRPM7 not expressed
[5] = test system: S2 cells (TRPL not expressed); assay type: cell-based, Drosophila; details: control S2 cells
native TRPL channel = target: T3, native TRPL channel (Drosophila melanogaster, UniProt P48994); test: Light induced current
T3 sequence (P48994 1-1124): T1 sequence (P48994 1-1124)

TRPM8 = details: cited from earlier work
Drosophila TRPL channel [6] = target: T1, Drosophila TRPL channel; details: Table 1; no own experiment shown; cited from earlier work

In the case of O=C/C=C/c1ccccc1 [Cinnamaldehyde], the “Effect on TRPL-mediated current” value (Drosophila TRPL channel [1]; 2mM) is reported as “decrease in the TRPL mediated current”, the “TRPL Activation/Inhibition” value (Drosophila TRPL channel [1]) is reported as “Inhibition” and the “Reversibility of effect on TRPL channel” value (Drosophila TRPL channel [1]) is reported as “reversible”.

For O=C(O)/C=C/c1ccc(O)c(O)c1 [Caffeic acid], the “Effect on TRPL-mediated current” value (Drosophila TRPL channel [1]; 5mM (caffeic acid: up to 5mM)) was “did not block” and the “TRPL Activation/Inhibition” value (Drosophila TRPL channel [1]) was “No effect”.

In the case of C=C(C)C1CC=C(C)C(O)C1 (mixture of isomers) [Carveol], the IC50 (Drosophila TRPL channel [1]) is reported as 4.22 ± 0.4 mM, the “Effect on TRPL-mediated current” value (Drosophila TRPL channel [1]; 5mM (caffeic acid: up to 5mM)) is reported as “large decrease in the TRPL-dependent current” and the “TRPL Activation/Inhibition” value (Drosophila TRPL channel [1]) is reported as “Inhibition”.

For CC12CCC(CC1=O)C2(C)C (centres unmarked) [Camphor], the “Effect on TRPL-mediated current” value (Drosophila TRPL channel [1]; 10mM) was “activated” and the “TRPL Activation/Inhibition” value (Drosophila TRPL channel [1]) was “Activation”.

With Cc1ccc(C(C)C)cc1O [Carvacrol] the “Effect on TRPM7 mediated current” value (mammalian TRPM7; 500μM) was “dramatic decrease”, the “Reversibility of block of TRPM7” value (mammalian TRPM7; HEK293 cells) was “reversibly blocked” and the “Effect on LIC of WT flies (TRP channel)” value (native TRP channel) was “inhibits”. The “Effect on TRPL-mediated current” value (Drosophila TRPL channel [1]; 500μM) was “Large suppression of the current”, the “TRPL Activation/Inhibition” value (Drosophila TRPL channel [1]) was “Inhibition” and the “Reversibility of effect on TRPL channel” value (Drosophila TRPL channel [1]) was “reversibly blocked”. For the same compound, the “ΔF median of boutons after application” value ([2]; before application 73) was 75 arbitrary units (a.u), the “Number of FM detectable boutons after application” value ([2]; before application 578) was 318 and the “Effect on presynaptic activity in control neurons” value [3] was “did not affect”. For the same compound, the “ΔF median of boutons after application” value ([3]; before application 88) was 87 arbitrary units, the “Number of FM detectable boutons after application” value ([3]; before application 764) was 845 and the “Effect on current in mock transfected HEK293 cells” value [4] was “no effect”. For the same compound, the “Effect on current when TRPL was not expressed” value [5] was “no effect”, the “Effect on amplitude of the LIC (native TRPL)” value (native TRPL channel; 500μM, trp^P343 mutant photoreceptor) was “dramatic reduction” and the “Requirement of light stimulation for inhibition of native TRPL” value (native TRPL channel; carvacrol applied in the dark, trp^P343) was “does not require light stimulation”. The “Effect on TRPM8” value (TRPM8) was “only a minimal effect”.

With CC1CCC(C(C)C)C(O)C1 (centres unmarked) [Menthol] the IC50 (Drosophila TRPL channel [1]) was 1.81 ± 0.13 mM, the “Effect on TRPL-mediated current” value (Drosophila TRPL channel [1]; 5mM (caffeic acid: up to 5mM)) was “large decrease in the TRPL-dependent current” and the “TRPL Activation/Inhibition” value (Drosophila TRPL channel [1]) was “Inhibition”.

For C=CCc1ccc(O)c(OC)c1 [Eugenol], the “Effect on TRPL-mediated current” value (Drosophila TRPL channel [1]; 3mM) was “large decrease in the TRPL-dependent current” and the “TRPL Activation/Inhibition” value (Drosophila TRPL channel [1]) was “Inhibition”.

For CC1(C)C2CCC1(C)C(O)C2 (centres unmarked) [Borneol], the “Effect on TRPL-mediated current” value (Drosophila TRPL channel [1]; 5mM (caffeic acid: up to 5mM)) was “activated”, the “TRPL Activation/Inhibition” value (Drosophila TRPL channel [1]) was “Activation” and the “Reversibility of effect on TRPL channel” value (Drosophila TRPL channel [1]) was “completely reversible”. For the same compound, the “Effect on current when TRPL was not expressed” value [5] was “no effect”.

With Cc1ccc(C(C)C)c(O)c1 [Thymol] the “Effect on TRPL-mediated current” value (Drosophila TRPL channel [1]; 1mM) was “large decrease in the TRPL-dependent current” and the “TRPL Activation/Inhibition” value (Drosophila TRPL channel [1]) was “Inhibition”.

In the case of NCCOB(c1ccccc1)c1ccccc1 [2-APB, 2-Aminoethoxydiphenyl borate], the “TRPL Activation/Inhibition” value (Drosophila TRPL channel [6]) is given as “Inhibition”.
